Data taken from the kinase profiling compilation of Christmann-Franck et al. (2016).

Experiments:
Test in all cases: Caliper, Mobility shift assay off-chip
CDK3 (human) = CDK3 (human) (UniProt Q00526)
NEK1 (human) = NEK1 (human) (UniProt Q96PY6)
DDR2 (human) = DDR2 (human) (UniProt Q16832)
IRAK4 (human) = IRAK4 (human) (UniProt Q9NWZ3)
PRKCG (human) = PRKCG (human) (UniProt P05129)
ALK EML4 (human) = ALK EML4 (human) (UniProt Q9HC35+Q9UM73)
SGK2 (human) = SGK2 (human) (UniProt Q9HBY8)
PRKCZ (human) = PRKCZ (human) (UniProt Q05513)
STK38L (human) = STK38L (human) (UniProt Q9Y2H1)
FRK (human) = FRK (human) (UniProt P42685)
CDK7 (human) = CDK7 (human) (UniProt P50613)
CLK2 (human) = CLK2 (human) (UniProt P49760)
MELK (human) = MELK (human) (UniProt Q14680)
HIPK1 (human) = HIPK1 (human) (UniProt Q86Z02)
MARK4 (human) = MARK4 (human) (UniProt Q96L34)
PHKG2 (human) = PHKG2 (human) (UniProt P15735)
CSNK2A1 (human) = CSNK2A1 (human) (UniProt P68400)
ROS1 (human) = ROS1 (human) (UniProt P08922)
PDGFRA (human) = PDGFRA (human) (UniProt P16234)
SRPK3 (human) = SRPK3 (human) (UniProt Q9UPE1)
SRC (human) = SRC (human) (UniProt P12931)
CAMK1D (human) = CAMK1D (human) (UniProt Q8IU85)
EPHA4 (human) = EPHA4 (human) (UniProt P54764)
CDK5 (human) = CDK5 (human) (UniProt Q00535)
CDC7 (human) = CDC7 (human) (UniProt O00311)
ABL2 (human) = ABL2 (human) (UniProt P42684)
CDC42BPB (human) = CDC42BPB (human) (UniProt Q9Y5S2)
PAK3 (human) = PAK3 (human) (UniProt O75914)
AURKC (human) = AURKC (human) (UniProt Q9UQB9)
LTK (human) = LTK (human) (UniProt P29376)
MAPK11 (human) = MAPK11 (human) (UniProt Q15759)
STK4 (human) = STK4 (human) (UniProt Q13043)
EEF2K (human) = EEF2K (human) (UniProt O00418)
TNK1 (human) = TNK1 (human) (UniProt Q13470)

CDK5 (human), sequence (Q00535 whole entry, looked up): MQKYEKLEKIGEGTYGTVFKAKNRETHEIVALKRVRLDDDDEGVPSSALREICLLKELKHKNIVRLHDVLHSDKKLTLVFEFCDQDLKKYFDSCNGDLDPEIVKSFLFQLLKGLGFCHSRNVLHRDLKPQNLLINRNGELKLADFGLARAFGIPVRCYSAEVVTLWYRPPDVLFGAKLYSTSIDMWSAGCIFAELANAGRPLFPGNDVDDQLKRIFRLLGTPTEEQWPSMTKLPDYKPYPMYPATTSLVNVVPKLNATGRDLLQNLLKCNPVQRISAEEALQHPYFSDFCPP
LTK (human), sequence (P29376 whole entry, looked up): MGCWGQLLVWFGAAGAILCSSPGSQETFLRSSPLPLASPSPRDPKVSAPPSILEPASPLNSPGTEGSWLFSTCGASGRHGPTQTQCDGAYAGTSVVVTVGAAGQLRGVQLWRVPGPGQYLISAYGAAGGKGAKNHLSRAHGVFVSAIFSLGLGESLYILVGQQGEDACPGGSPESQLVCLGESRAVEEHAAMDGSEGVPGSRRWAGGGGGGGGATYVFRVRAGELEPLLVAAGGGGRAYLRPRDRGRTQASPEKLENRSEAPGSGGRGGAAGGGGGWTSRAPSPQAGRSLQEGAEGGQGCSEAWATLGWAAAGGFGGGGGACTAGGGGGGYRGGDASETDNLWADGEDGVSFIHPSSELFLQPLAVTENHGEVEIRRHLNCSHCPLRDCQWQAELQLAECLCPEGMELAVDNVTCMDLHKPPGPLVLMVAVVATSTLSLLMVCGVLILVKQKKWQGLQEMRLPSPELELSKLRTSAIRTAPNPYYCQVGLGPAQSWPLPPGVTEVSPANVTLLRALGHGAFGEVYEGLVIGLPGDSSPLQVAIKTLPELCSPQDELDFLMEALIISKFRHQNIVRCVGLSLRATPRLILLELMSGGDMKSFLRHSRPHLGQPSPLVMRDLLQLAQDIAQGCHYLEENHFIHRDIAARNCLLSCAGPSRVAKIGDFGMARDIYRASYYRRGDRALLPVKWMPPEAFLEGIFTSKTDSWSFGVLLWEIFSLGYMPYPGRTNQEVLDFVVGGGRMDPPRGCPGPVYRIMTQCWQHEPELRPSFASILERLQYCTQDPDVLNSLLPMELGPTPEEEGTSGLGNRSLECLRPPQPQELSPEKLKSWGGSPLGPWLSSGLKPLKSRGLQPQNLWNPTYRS
EPHA4 (human), sequence (P54764 whole entry, looked up): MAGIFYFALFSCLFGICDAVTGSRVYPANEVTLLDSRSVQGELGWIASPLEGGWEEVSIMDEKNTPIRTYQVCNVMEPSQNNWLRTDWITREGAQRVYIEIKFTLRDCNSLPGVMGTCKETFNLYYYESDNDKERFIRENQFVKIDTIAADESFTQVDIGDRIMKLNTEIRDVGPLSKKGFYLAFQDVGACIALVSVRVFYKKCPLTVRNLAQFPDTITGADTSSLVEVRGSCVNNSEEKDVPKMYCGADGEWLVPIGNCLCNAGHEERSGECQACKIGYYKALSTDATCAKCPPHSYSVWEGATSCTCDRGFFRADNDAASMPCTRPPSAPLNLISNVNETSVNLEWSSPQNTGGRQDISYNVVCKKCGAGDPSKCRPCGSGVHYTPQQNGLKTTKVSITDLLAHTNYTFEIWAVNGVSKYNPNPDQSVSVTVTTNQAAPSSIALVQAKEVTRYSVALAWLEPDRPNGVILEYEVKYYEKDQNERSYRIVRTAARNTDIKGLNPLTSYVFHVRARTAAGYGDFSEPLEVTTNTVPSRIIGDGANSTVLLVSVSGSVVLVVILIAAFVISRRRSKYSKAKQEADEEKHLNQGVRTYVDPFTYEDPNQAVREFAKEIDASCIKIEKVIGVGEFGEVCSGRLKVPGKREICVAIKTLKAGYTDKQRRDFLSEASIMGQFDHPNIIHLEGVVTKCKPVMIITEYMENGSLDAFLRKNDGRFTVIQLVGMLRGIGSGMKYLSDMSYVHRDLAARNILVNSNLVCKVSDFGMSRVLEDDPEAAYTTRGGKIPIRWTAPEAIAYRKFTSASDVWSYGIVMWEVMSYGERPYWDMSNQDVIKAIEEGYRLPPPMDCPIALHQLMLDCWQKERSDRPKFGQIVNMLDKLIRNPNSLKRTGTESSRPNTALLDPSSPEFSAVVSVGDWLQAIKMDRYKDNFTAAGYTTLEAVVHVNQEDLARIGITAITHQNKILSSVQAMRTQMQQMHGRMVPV
DDR2 (human), sequence (Q16832 whole entry, looked up): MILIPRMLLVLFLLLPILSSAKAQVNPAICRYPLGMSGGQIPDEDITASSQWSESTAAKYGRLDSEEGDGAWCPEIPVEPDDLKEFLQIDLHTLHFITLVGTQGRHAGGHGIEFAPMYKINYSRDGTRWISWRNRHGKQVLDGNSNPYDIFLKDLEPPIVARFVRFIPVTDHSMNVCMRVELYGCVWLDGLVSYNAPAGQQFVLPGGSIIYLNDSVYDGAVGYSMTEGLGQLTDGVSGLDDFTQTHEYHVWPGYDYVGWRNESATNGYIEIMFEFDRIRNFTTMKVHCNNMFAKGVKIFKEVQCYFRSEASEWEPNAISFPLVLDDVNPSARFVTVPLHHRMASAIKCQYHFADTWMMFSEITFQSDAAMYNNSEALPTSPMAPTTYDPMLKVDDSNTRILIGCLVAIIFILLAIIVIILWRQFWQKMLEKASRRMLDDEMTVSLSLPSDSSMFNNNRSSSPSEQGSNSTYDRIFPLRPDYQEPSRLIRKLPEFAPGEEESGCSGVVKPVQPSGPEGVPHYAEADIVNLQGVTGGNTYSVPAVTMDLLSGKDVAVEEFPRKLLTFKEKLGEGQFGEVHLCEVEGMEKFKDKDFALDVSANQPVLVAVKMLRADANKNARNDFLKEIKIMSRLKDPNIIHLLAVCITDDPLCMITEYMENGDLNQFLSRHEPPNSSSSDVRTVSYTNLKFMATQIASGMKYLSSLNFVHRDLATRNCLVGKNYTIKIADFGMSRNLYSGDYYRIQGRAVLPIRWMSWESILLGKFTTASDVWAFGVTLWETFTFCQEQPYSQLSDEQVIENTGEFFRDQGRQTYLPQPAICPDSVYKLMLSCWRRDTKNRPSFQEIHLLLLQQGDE
CDK3 (human), sequence (Q00526 whole entry, looked up): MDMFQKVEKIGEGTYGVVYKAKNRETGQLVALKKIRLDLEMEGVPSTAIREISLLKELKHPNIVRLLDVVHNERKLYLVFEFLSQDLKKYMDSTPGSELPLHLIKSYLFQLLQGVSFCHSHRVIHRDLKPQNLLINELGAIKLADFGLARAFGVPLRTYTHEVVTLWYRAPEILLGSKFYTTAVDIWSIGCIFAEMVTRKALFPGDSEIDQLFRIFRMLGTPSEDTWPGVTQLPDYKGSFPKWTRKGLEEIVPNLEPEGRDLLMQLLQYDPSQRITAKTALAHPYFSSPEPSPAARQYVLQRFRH
SRC (human), sequence (P12931 whole entry, looked up): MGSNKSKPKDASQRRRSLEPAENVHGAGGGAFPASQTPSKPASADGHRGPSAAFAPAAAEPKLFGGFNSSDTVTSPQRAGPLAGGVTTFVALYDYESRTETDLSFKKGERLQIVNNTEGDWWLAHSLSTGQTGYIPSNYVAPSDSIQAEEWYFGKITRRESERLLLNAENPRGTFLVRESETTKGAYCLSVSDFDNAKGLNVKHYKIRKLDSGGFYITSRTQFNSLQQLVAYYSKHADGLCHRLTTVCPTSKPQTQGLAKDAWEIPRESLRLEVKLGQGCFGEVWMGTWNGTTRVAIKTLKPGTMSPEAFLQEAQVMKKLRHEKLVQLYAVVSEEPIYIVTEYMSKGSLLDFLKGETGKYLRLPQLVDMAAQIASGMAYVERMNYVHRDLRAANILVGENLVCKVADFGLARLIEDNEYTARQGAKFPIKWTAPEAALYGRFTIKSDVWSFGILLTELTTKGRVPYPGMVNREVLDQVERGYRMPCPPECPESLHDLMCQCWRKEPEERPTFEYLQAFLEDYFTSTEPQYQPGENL
CLK2 (human), sequence (P49760 whole entry, looked up): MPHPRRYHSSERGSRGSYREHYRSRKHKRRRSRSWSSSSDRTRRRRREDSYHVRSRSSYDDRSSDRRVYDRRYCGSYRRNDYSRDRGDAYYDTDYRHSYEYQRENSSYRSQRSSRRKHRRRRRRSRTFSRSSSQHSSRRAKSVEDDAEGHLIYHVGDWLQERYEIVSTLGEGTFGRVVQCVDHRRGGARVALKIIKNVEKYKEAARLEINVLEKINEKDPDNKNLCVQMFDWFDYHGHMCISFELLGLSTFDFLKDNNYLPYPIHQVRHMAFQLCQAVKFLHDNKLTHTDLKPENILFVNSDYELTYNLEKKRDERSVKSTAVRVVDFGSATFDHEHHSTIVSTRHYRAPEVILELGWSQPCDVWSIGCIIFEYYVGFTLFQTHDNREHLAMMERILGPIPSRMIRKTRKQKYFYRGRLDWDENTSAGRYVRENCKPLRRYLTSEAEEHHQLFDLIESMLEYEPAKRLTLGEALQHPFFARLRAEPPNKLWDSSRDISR
SRPK3 (human), sequence (Q9UPE1 whole entry, looked up): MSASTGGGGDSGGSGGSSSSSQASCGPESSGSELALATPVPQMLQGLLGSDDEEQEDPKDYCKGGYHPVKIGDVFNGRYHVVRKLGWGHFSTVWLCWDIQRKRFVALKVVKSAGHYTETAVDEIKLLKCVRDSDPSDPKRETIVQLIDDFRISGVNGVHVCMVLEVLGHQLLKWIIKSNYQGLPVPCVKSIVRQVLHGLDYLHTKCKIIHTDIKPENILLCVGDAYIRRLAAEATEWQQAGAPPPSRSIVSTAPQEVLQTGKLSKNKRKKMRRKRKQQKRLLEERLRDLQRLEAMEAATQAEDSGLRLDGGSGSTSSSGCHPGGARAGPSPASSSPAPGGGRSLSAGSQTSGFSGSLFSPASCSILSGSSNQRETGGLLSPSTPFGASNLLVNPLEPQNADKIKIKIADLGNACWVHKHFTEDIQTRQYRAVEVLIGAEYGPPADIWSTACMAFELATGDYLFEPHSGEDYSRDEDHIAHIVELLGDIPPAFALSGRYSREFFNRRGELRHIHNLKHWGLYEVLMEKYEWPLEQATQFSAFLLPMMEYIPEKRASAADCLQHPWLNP

In the case of COc1cc2c(Oc3ccc4[nH]c(C)cc4c3F)ncnc2cc1OCCCN1CCCC1, the inhibition (CDK3 (human); compound 0.02 µM) is reported as -3.3%, the inhibition (CDK3 (human); compound 0.2 µM) is reported as -1.1% and the inhibition (NEK1 (human); compound 0.02 µM) is reported as -5%. It also gave an inhibition (NEK1 (human); compound 0.2 µM) of -4.5%, an inhibition (DDR2 (human); compound 0.02 µM) of 26.6% and an inhibition (DDR2 (human); compound 0.2 µM) of 82.1%. For the same molecule, the inhibition (IRAK4 (human); compound 0.02 µM) was -5.6%, the inhibition (IRAK4 (human); compound 0.2 µM) was -5.6% and the inhibition (PRKCG (human); compound 0.02 µM) was 3.8%. It also gave an inhibition (PRKCG (human); compound 0.2 µM) of 4.1%, an inhibition (ALK EML4 (human); compound 0.02 µM) of -1.4% and an inhibition (ALK EML4 (human); compound 0.2 µM) of 0.1%. For the same molecule, the inhibition (SGK2 (human); compound 0.02 µM) was 4.4%, the inhibition (SGK2 (human); compound 0.2 µM) was 3.9% and the inhibition (PRKCZ (human); compound 0.02 µM) was 10.1%. For the same molecule, the inhibition (PRKCZ (human); compound 0.2 µM) was 1.5%, the inhibition (STK38L (human); compound 0.02 µM) was 8.9% and the inhibition (STK38L (human); compound 0.2 µM) was -0.2%. The inhibition (FRK (human); compound 0.02 µM) was 12%, the inhibition (FRK (human); compound 0.2 µM) was 27.4% and the inhibition (CDK7 (human); compound 0.02 µM) was -5.4%. The inhibition (CDK7 (human); compound 0.2 µM) was -4.5%, the inhibition (CLK2 (human); compound 0.02 µM) was 0.3% and the inhibition (CLK2 (human); compound 0.2 µM) was 1.1%. The inhibition (MELK (human); compound 0.02 µM) was 6.6%, the inhibition (MELK (human); compound 0.2 µM) was 10% and the inhibition (HIPK1 (human); compound 0.02 µM) was -5.7%. The inhibition (HIPK1 (human); compound 0.2 µM) was -1%, the inhibition (MARK4 (human); compound 0.02 µM) was -7.1% and the inhibition (MARK4 (human); compound 0.2 µM) was -7.3%. For the same molecule, the inhibition (PHKG2 (human); compound 0.02 µM) was -2.9%, the inhibition (PHKG2 (human); compound 0.2 µM) was -3.3% and the inhibition (CSNK2A1 (human); compound 0.02 µM) was -0.1%. For the same molecule, the inhibition (CSNK2A1 (human); compound 0.2 µM) was -0.5%, the inhibition (ROS1 (human); compound 0.02 µM) was 0.6% and the inhibition (ROS1 (human); compound 0.2 µM) was 0.4%. The inhibition (PDGFRA (human); compound 0.02 µM) was 39.2%, the inhibition (PDGFRA (human); compound 0.2 µM) was 86.9% and the inhibition (SRPK3 (human); compound 0.02 µM) was -3.4%. It also gave an inhibition (SRPK3 (human); compound 0.2 µM) of 0.3%, a Ki (SRC (human)) of 83.5 nM and an inhibition (SRC (human); compound 0.2 µM) of 58.1%. For the same molecule, the inhibition (CAMK1D (human); compound 0.02 µM) was 0.3%, the inhibition (CAMK1D (human); compound 0.2 µM) was -0.6% and the inhibition (EPHA4 (human); compound 0.02 µM) was -4.1%. It also gave an inhibition (EPHA4 (human); compound 0.2 µM) of -2.4%, an inhibition (CDK5 (human); compound 0.02 µM) of 0.8% and an inhibition (CDK5 (human); compound 0.2 µM) of -4.2%. The inhibition (CDC7 (human); compound 0.02 µM) was -3.4%, the inhibition (CDC7 (human); compound 0.2 µM) was -0.7% and the inhibition (ABL2 (human); compound 0.02 µM) was 5.6%. The inhibition (ABL2 (human); compound 0.2 µM) was 34.5%, the inhibition (CDC42BPB (human); compound 0.02 µM) was -8.9% and the inhibition (CDC42BPB (human); compound 0.2 µM) was 4.2%. It also gave an inhibition (PAK3 (human); compound 0.02 µM) of -1.7%, an inhibition (PAK3 (human); compound 0.2 µM) of 3.3% and an inhibition (AURKC (human); compound 0.02 µM) of -4.3%. The inhibition (AURKC (human); compound 0.2 µM) was -4%, the inhibition (LTK (human); compound 0.02 µM) was 4.7% and the inhibition (LTK (human); compound 0.2 µM) was 5.6%. For the same molecule, the inhibition (MAPK11 (human); compound 0.02 µM) was -2.6%, the inhibition (MAPK11 (human); compound 0.2 µM) was -3.5% and the inhibition (STK4 (human); compound 0.02 µM) was -4.5%. It also gave an inhibition (STK4 (human); compound 0.2 µM) of 9%, an inhibition (EEF2K (human); compound 0.02 µM) of -5.2% and an inhibition (EEF2K (human); compound 0.2 µM) of 3.1%. It also gave an inhibition (TNK1 (human); compound 0.02 µM) of -2.8% and an inhibition (TNK1 (human); compound 0.2 µM) of -1.2%.
